{
  "source": "patent US20230381148A1",
  "about": "“HDAC6 INHIBITORS FOR TREATMENT OF METABOLIC DISEASE AND HFPEF” (Tenaya Therapeutics, Inc., priority 2021, published 2023)",
  "test_system": "HFD/L-NAME mice",
  "assay": "HFD/L-NAME HFpEF mouse model, TYA-11018 versus Empagliflozin for 9 weeks",
  "type": "in vivo",
  "details": "TYA-11018 15 mg/kg, Empagliflozin 10 mg/kg",
  "protocol": "After HFpEF phenotypes were established, mice received 15 mg/kg TYA-11018 or 10 mg/kg Empagliflozin, or vehicle orally once daily for 9 weeks. Health monitoring was performed weekly with body weights recorded. Glucose tolerance test was performed after 1st dose. Cardiac function was recorded by echocardiography after treatment for 9 weeks. End diastolic pressure (EDP) was measured by PV-Loop at terminal at 9 weeks after dosing.\nAnimals: Cohort of mice with established HFpEF phenotypes and age/sex matched wild type controls were used for dosing study. […] After acclimation for 1 week, one group of mice was fed with high fat diet containing 0.07% L-NAME (LabDiet 5G5V, St Louis, MO) for 15 weeks. The control group of mice were fed with normal chow (LabDiet 5053, St Louis, MO). […] Animals were housed in an animal research facility in accordance with the National Research Council of the National Academies guidelines for the care and use of laboratory animals.\nA second group of mice was fed with standard chow for controls.\nTransthoracic echocardiography was performed using a VisualSonics Vevo 2100 system equipped with MS400 transducer (Visual Sonics, Toronto, ON). LVEF and other indices of systolic function were obtained from short-axis M-mode scans at the midventricular level, as indicated by the presence of papillary muscles, in conscious, gently restrained mice. […]\nIntraperitoneal glucose-tolerance tests were performed by injection of glucose (2 g/kg in saline) after 6 hour fasting (from 7 a.m. to 1 p.m.). Tail blood glucose levels (mg/dL) were measured by AimStrip Plus blood glucose strips used with the AimStrip Plus blood glucose monitoring system (Germaine Laboratories, San Antonio, TX) at 0 (baseline, before glucose dose), 15, 30, 45, 60 and 120 minutes after glucose administration.\nThe trachea was exposed by a midline incision from the base of the throat to just above the clavicle. […] The hemodynamic parameters were then recorded in close-chest mode. […]",
  "data": [
    {"smiles": "OC[C@H]1O[C@@H](c2ccc(Cl)c(Cc3ccc(O[C@H]4CCOC4)cc3)c2)[C@H](O)[C@@H](O)[C@@H]1O", "note": "[Empagliflozin, empagliflozin]", "values": [
      {"measurement": "E/A ratio", "value": "decreased"},
      {"measurement": "E/e′ ratio", "value": "decreased"},
      {"measurement": "end diastolic pressure", "value": "reduced end diastolic pressure"}
    ]}
  ]
}
